In patent publication US10870647B2, “Imidazopyridine derivative, method for preparing same, and pharmaceutical composition containing same as active ingredient for preventing or treating cancer” (DAEGU-GYEONGBUK MEDICAL INNOVATION FOUNDATION, priority 2016, dated 2020) one finds remaining binding data, which are given here for three compounds.

What all share (assay): Kinase selectivity, scanMAX Kinase assay panel (DiscoverX), % control at 1 uM
Format in all cases: binding

The target in assay [1] is T1, scanMAX Kinase assay panel (Homo sapiens, UniProt O14730).
T1 construct: purchased DiscoverX
T1 sequence (O14730 1-519): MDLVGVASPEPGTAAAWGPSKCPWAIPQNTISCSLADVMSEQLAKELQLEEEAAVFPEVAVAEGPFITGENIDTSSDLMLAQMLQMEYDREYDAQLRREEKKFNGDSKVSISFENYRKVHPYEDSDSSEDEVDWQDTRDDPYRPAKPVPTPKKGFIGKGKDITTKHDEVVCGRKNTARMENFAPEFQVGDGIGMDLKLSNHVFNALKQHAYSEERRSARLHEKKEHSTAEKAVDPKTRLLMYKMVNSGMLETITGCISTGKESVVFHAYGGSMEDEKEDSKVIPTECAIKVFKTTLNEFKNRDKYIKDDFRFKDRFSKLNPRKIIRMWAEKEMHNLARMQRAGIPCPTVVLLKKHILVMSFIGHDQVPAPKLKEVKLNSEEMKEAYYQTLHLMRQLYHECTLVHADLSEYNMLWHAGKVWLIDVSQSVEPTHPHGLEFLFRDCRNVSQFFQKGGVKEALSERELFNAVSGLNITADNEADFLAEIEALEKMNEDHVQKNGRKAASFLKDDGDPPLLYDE
Conditions: RIOK3; 1 uM; read-out: Percent Control (%). Summed up:
(§1)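 Read-out is percent of control, derived from the signal with compound relative to positive and negative controls: (compound − positive)/(negative − positive) × 100. Each enzyme received test drug at 1 uM in DMSO, and values under 35% count as active.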

The target of assay [2] is T2, scanMAX Kinase assay panel (Homo sapiens, UniProt P00519).
T2 construct: purchased DiscoverX
Conditions: 1 uM, read-out: Percent Control (%). An outline of the steps:
as §1

For assay [3], the target named is T3, scanMAX Kinase assay panel (Homo sapiens, UniProt P10721, A829P).
T3 construct: purchased DiscoverX
Conditions: KIT (A829P); 1 uM; read-out: Percent Control (%). An outline of the steps: as §1

The target of assay [4] is T4, scanMAX Kinase assay panel (Homo sapiens, UniProt P45985).
T4 construct: purchased DiscoverX
T4 sequence (P45985 1-399): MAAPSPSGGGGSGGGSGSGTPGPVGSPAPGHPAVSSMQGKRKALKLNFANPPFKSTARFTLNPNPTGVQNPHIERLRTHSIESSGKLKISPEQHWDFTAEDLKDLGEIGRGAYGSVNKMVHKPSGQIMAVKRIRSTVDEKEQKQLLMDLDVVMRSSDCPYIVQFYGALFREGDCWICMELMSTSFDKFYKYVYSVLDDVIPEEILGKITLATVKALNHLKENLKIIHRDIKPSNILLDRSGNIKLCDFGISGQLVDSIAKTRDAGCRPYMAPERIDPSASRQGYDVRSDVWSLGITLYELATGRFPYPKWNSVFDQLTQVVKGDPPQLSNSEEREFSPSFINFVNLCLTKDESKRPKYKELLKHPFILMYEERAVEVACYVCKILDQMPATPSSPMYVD
Conditions: MEK4; 1 uM; read-out: Percent Control (%). Summed up:
as §1

Assay [5] concerns the target T5, scanMAX Kinase assay panel (Homo sapiens, UniProt Q96PY6).
T5 construct: purchased DiscoverX
T5 sequence (Q96PY6 1-1258): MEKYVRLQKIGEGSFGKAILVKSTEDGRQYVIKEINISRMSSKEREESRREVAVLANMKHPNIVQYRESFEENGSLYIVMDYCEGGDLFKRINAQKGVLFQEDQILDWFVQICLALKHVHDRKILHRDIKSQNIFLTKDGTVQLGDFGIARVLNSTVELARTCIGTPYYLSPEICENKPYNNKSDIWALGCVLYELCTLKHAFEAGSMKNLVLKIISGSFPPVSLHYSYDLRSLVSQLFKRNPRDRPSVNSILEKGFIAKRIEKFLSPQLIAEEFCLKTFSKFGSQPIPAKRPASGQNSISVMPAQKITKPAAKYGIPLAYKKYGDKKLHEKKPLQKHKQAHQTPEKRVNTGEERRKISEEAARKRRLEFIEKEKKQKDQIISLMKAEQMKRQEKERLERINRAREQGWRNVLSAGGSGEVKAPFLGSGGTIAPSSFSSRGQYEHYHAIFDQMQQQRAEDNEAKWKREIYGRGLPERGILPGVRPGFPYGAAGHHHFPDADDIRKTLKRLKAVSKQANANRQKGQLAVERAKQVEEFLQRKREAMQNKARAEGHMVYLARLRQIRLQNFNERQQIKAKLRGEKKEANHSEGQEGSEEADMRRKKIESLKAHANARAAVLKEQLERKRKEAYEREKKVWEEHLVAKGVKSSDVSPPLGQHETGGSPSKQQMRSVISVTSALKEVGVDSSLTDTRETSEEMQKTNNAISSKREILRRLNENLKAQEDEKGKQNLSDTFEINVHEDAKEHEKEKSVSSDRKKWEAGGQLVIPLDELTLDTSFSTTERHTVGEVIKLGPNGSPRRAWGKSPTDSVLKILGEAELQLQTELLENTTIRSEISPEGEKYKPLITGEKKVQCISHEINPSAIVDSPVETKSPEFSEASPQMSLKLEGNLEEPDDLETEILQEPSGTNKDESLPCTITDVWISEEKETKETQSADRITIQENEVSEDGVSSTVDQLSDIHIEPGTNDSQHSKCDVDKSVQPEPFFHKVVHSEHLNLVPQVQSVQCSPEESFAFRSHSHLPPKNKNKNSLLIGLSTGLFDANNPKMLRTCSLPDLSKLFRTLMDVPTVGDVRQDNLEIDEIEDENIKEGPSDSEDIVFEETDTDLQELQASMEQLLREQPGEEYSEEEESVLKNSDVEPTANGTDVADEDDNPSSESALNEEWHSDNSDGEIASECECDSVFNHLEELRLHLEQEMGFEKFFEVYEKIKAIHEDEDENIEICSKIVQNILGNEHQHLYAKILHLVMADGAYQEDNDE
To be noted: NEK1; 1 uM; read-out: Percent Control (%). Summed up:
as §1

Read-outs that look alike come from different tables or passages of the source.

T2 sequence (P00519 whole entry): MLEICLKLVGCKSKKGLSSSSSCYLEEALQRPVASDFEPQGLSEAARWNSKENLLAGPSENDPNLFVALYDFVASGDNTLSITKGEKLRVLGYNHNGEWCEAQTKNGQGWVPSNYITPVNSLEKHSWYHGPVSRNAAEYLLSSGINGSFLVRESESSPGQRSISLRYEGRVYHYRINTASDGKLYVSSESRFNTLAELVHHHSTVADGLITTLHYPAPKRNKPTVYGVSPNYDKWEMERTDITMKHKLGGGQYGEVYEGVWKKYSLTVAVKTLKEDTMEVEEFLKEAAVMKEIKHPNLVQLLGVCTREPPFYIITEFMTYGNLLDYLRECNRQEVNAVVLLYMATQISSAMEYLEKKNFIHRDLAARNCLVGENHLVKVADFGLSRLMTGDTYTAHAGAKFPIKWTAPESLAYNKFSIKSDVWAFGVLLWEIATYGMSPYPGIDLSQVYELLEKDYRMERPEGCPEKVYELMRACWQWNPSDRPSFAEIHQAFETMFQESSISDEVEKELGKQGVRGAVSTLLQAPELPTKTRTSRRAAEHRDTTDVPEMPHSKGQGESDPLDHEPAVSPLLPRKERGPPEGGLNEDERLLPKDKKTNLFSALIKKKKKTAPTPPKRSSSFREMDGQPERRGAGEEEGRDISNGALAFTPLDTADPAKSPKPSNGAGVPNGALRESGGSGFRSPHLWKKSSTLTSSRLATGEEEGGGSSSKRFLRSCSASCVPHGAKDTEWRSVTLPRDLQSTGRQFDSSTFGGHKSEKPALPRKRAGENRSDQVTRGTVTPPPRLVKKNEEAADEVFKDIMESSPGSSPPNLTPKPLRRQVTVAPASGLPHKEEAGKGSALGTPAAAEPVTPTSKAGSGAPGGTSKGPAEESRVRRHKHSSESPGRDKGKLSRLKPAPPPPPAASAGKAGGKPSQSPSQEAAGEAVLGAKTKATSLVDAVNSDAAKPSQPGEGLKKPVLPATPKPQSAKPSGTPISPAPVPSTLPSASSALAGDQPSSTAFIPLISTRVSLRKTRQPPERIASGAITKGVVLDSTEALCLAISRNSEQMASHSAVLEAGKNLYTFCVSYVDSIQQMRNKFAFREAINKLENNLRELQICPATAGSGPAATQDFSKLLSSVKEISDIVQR
T3 sequence (P10721 26-976 A829P): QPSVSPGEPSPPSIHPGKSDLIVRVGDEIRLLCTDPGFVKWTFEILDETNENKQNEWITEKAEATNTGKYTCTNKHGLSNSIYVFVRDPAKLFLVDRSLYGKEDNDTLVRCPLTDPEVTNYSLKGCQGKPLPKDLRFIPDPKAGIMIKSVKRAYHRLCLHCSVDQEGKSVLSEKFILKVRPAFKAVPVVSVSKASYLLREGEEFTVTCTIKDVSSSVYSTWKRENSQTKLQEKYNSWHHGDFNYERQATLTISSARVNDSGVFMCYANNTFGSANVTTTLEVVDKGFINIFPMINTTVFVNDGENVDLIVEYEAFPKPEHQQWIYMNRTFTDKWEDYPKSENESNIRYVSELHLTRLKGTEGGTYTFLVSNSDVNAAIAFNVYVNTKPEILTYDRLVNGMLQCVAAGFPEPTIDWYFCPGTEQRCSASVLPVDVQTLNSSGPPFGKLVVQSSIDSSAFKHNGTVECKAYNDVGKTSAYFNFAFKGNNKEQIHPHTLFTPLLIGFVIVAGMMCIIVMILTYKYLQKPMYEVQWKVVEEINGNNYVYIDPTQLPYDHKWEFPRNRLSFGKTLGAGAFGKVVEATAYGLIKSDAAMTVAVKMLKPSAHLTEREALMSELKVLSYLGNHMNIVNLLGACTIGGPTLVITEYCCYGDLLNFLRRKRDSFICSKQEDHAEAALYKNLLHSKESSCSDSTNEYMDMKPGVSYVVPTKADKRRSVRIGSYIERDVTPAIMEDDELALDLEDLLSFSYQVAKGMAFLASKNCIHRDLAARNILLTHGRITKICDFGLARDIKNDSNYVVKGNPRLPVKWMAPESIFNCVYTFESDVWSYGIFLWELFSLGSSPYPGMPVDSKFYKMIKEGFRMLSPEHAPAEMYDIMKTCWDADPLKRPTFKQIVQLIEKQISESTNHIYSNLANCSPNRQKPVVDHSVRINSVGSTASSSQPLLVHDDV

For `Cc1ccc(C(=O)Nc2ccc(CN3CCN(C)CC3)c(C(F)(F)F)c2)cc1C#Cc1cnc2c(Nc3cnn(C)c3)cccn12` [Example 1, 4-methyl-3-((8-((1-methyl-1H-pyrazol-4-yl)amino)imidazo[1,2-a]pyridin-3-yl)ethynyl)-N-(4-((4-methylpiperazin-1-yl)methyl)-3-(trifluoromethyl)phenyl)benzamide], the remaining binding at 1 µM in assay [1] was 94%; in assay [2] (ABL1-nonphosphorylated), 1%; in assay [2] (ABL1-phosphorylated), 0%; in assay [3], 4%; in assay [4], 98%; in assay [5], 52%.

For the compound `Cc1ccc(NC(=O)C2(C(=O)Nc3ccc(F)cc3)CC2)cc1C#Cc1cnc2c(Nc3cnn(C(C)C)c3)cccn12` [Example 78], the remaining binding at 1 µM stood at 95% in assay [1]; 4% in assay [2] (ABL1-nonphosphorylated); 56% in assay [2] (ABL1-phosphorylated); 21% in assay [3]; 97% in assay [4]; 100% in assay [5].

`Cc1cn(-c2cc(NC(=O)c3ccc(C)c(C#Cc4cnc5c(Nc6cnn(C)c6)cccn45)c3)cc(C(F)(F)F)c2)cn1` [Example 12, 4-methyl-N-(3-(4-methyl-1H-imidazol-1-yl)-5-(trifluoromethyl)phenyl)-3-((8-((1-methyl-1H-pyrazol-4-yl)amino)imidazo[1,2-a]pyridin-3-yl)ethynyl)benzamide]: the remaining binding at 1 µM in assay [1] came out at 96%; in assay [2] (ABL1-nonphosphorylated), 1%; in assay [2] (ABL1-phosphorylated) it was 6%; in assay [3], 29%; in assay [4], 100%; in assay [5], 96%.
